Data as given in PubChem BioAssay (NCI).
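Tested at 5 concentrations; 48 h exposure; 96-well plates; endpoints linearly interpolated, else capped at highest concentration. Here, GI50 denotes the concentration required for 50% inhibition of growth. At the TGI there is no net growth.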

What was measured:
Experiment in all cases: inhibition of tumour cell growth, NCI panel, 48 h
[1] = test system: PC-3 prostate
[2] = test system: HL-60(TB) leukemia
[3] = test system: CCRF-CEM leukemia
[4] = test system: A498 renal
[5] = test system: HOP-92 NSCLC
[6] = test system: HCT-116 colon
[7] = test system: SK-MEL-28 melanoma
[8] = test system: A549 NSCLC
[9] = test system: UO-31 renal
[10] = test system: MDA-MB-435
[11] = test system: LOX IMVI melanoma
[12] = test system: ACHN renal
[13] = test system: DU-145 prostate
[14] = test system: MOLT-4 leukemia
[15] = test system: 786-0 renal
[16] = test system: MALME-3M melanoma
[17] = test system: M14 melanoma
[18] = test system: SR leukemia
[19] = test system: HCC-2998 colon
[20] = test system: RPMI-8226 leukemia
[21] = test system: SK-OV-3 ovarian
[22] = test system: IGROV1 ovarian
[23] = test system: U251 CNS
[24] = test system: NCI-H226 lung
[25] = test system: K-562 leukemia
[26] = test system: NCI-H460 lung
[27] = test system: SF-295 CNS
[28] = test system: SNB-75 CNS
[29] = test system: SN12C renal
[30] = test system: CAKI-1 renal
[31] = test system: NCI-H23 lung
[32] = test system: HT29 colon
[33] = test system: SF-539 CNS
[34] = test system: OVCAR-8 ovarian
[35] = test system: SW-620 colon
[36] = test system: NCI/ADR-RES ovarian
[37] = test system: SNB-19 CNS
[38] = test system: UACC-257 melanoma
[39] = test system: COLO 205 colon
[40] = test system: TK-10 renal
[41] = test system: HCT-15 colon
[42] = test system: BT-549 breast
[43] = test system: HS 578T breast
[44] = test system: NCI-H522 lung
[45] = test system: EKVX NSCLC
[46] = test system: T-47D breast
[47] = test system: SK-MEL-2 melanoma
[48] = test system: RXF 393 renal
[49] = test system: OVCAR-3 ovarian
[50] = test system: SK-MEL-5 melanoma
[51] = test system: MDA-MB-231 breast
[52] = test system: HOP-62 NSCLC
[53] = test system: OVCAR-5 ovarian
[54] = test system: UACC-62 melanoma
[55] = test system: MCF7 breast
[56] = test system: KM12 colon
[57] = test system: SF-268 CNS
[58] = test system: OVCAR-4 ovarian

CC1=C(CCC=NNC(N)=O)C2=C(C)C3(CC3)[C@@](C)(O)C(=O)C2=C1
GI50 [1]: 528 nM | TGI [1]: 5240 nM | GI50 [2]: 274 nM | TGI [2]: 1770 nM | GI50 [3]: 3930 nM | TGI [3]: 26200 nM | GI50 [4]: 317 nM | TGI [4]: 902 nM | GI50 [5]: 238 nM | TGI [5]: 702 nM | GI50 [6]: 272 nM | TGI [6]: 2480 nM | GI50 [7]: 700 nM | TGI [7]: 2150 nM | GI50 [8]: 281 nM | TGI [8]: 1350 nM | GI50 [9]: 160 nM | TGI [9]: 373 nM | GI50 [10]: 1320 nM | TGI [10]: 3250 nM | GI50 [11]: 457 nM | TGI [11]: 2110 nM | GI50 [12]: 250 nM | TGI [12]: 695 nM | GI50 [13]: 120 nM | TGI [13]: 5030 nM | GI50 [14]: 2790 nM | TGI [14]: 20900 nM | GI50 [15]: 232 nM | TGI [15]: 623 nM | GI50 [16]: 316 nM | TGI [16]: 913 nM | GI50 [17]: 196 nM | TGI [17]: 449 nM | GI50 [18]: 2580 nM | TGI [18]: 61800 nM | GI50 [19]: 350 nM | TGI [19]: 1150 nM | GI50 [20]: 5580 nM | TGI [20]: 32600 nM | GI50 [21]: 246 nM | TGI [21]: 666 nM | GI50 [22]: 248 nM | TGI [22]: 1270 nM | GI50 [23]: 440 nM | TGI [23]: 4190 nM | GI50 [24]: 421 nM | TGI [24]: 3810 nM | GI50 [25]: 3430 nM | TGI [25]: 17800 nM | GI50 [26]: 159 nM | TGI [26]: 3740 nM | GI50 [27]: 289 nM | TGI [27]: 1150 nM | GI50 [28]: 253 nM | TGI [28]: 748 nM | GI50 [29]: 369 nM | TGI [29]: 2500 nM | GI50 [30]: 281 nM | TGI [30]: 2800 nM | GI50 [31]: 174 nM | TGI [31]: 743 nM | GI50 [32]: 351 nM | TGI [32]: 1900 nM | GI50 [33]: 225 nM | TGI [33]: 614 nM | GI50 [34]: 238 nM | TGI [34]: 926 nM | GI50 [35]: 5790 nM | TGI [35]: 19600 nM | GI50 [36]: 420 nM | TGI [36]: 4580 nM | GI50 [37]: 717 nM | TGI [37]: 7860 nM | GI50 [38]: 538 nM | TGI [38]: 2130 nM | GI50 [39]: 230 nM | TGI [39]: 647 nM | GI50 [40]: 318 nM | TGI [40]: 1610 nM | GI50 [41]: 281 nM | TGI [41]: 1320 nM | GI50 [42]: 226 nM | TGI [42]: 695 nM | GI50 [43]: 1860 nM | TGI [43]: 6280 nM | GI50 [44]: 515 nM | TGI [44]: 1960 nM | GI50 [45]: 1440 nM | TGI [45]: 6160 nM | GI50 [46]: 245 nM | TGI [46]: 1480 nM | GI50 [47]: 520 nM | TGI [47]: 1030 nM | GI50 [48]: 145 nM | TGI [48]: 306 nM | GI50 [49]: 415 nM | TGI [49]: 3250 nM | GI50 [50]: 231 nM | TGI [50]: 617 nM | GI50 [51]: 412 nM | TGI [51]: 2000 nM | GI50 [52]: 234 nM | TGI [52]: 753 nM | GI50 [53]: 325 nM | TGI [53]: 1420 nM | GI50 [54]: 488 nM | TGI [54]: 1310 nM | GI50 [55]: 426 nM | TGI [55]: 12100 nM | GI50 [56]: 1640 nM | TGI [56]: 5380 nM | GI50 [57]: 318 nM | TGI [57]: 4570 nM | GI50 [58]: 439 nM | TGI [58]: 1700 nM
